US11890349B2, “Treatment of inflammatory diseases with inhibitors of C5A activity” (InflaRx GmbH, priority 2017, dated 2024)

Assays:
[1] = test system: CD11b upregulation on the surface of neutrophils; test: Human CD11b potency assay (flow cytometric assay) with HS patient plasma or rhC5a-spiked human plasma; type: cell-based
Text: Accumulation of neutrophils at the site of inflammation is dependent on the expression of adhesion molecules, including CD11b (also known as integrin alpha M) (Larson and Springer, 1990; Carlos and Harlan, 1990). Upregulation and mobilizing of CD11b/CD18 from intracellular pools to the surface of neutrophils is essential for the rolling action and migration of human neutrophils (Smith et al., 1989). Enhanced expression of CD11b/CD18 therefore reflects an inflammatory triggering event. The human CD11b assay is conducted using flow cytometry to detect FITC-conjugated anti-CD11b antibody on the surface of neutrophils. Activated complement products, especially elevated endogenous C5a (eC5a) in HS patient plasma samples can strongly upregulate CD11b expression through the binding of C5a to its receptor C5aR (CD88) on neutrophils. Consequently, blockade of the C5a-C5aR axis is expected to abolish or attenuate CD11b upregulation on the surface of neutrophils.
Two patient plasma samples Pat. 088 and Pat. 092 (5 μL) were incubated with fresh human blood (60 μL, as source of neutrophils) in the absence or presence of C5a-C5aR axis blockers (anti-C5a antibody IFX-1, anti-C5aR antibodies clone S5/1 and clone 7H110, C5aR antagonist PMX-53, and C5aR inhibitor Avacopan; 10 μL) in a total volume of 100 μL. Two control plasma samples (Ctrl 009 and Ctrl 010, 5 μL) prepared according to the procedure applied to the patient samples served as controls for unspecific activation. Blood with only saline (40 μL) or normal human plasma pool (huPP 5 μL+saline 35 μL) served as the non-stimulated control to define the baseline expression of CD11b. Blood sample with normal human plasma pool and spiked with recombinant human C5a (rhC5a) mimicked the stimulated condition. All samples were incubated at 37° C. for 20 min to activate CD11b upregulation. After cooling on ice, 2 μL of FITC-conjugated anti-mouse CD11b antibody was added to the samples. The labeled samples were kept on ice in the dark for another 30-min to minimize the background signal. Red blood cells were then lysed with 1×FACS Lysing solution at room temperature for 10 min. 2 mL Staining buffer was used to wash the remaining cells twice. After centrifugation at 2500 rpm for 3 min, cells were resuspended in 0.5 mL Staining buffer and ready for FACS analysis. A gate was set on the FSC vs. SSC plot to allow analysis only of cells with the size of neutrophils.
The percentage of blocking activity (BA) of the C5a-C5aR axis blockade test material was calculated using the formula below. Where MFI is the mean fluorescence intensity emitted from the CD11b-bound FITC on neutrophils. BA (%)=(MFIPatient plasma−MFITest material spiked patient plasma)÷(MFIPatient plasma−MFIhuPP)×100 b) Statistical Analysis

[2] = test system: patients with moderate to severe hidradenitis suppurativa
Experimental: Primary objective of the trial was to explore the safety and tolerability of IFX-1 administered over 8 weeks. Secondary objectives of the trial were to assess the pharmacokinetics and pharmacodynamics of IFX-1 as well as to generate preliminary data on the efficacy of IFX-1 on clinical endpoints (e.g., HiSCR, DLQI, VAS for disease status, VAS for pain, HS-PGA, modified Sartorius Score) to generate further hypotheses. The enrolled patients were treated with 800 mg IFX-1 twice in the first week and once a week thereafter for the total 8-week treatment; i.e. IFX-1 was administered in nine intravenous doses of 800 mg IFX-1 on days 1, 4, 8, 15, 22, 29, 36, 43, and 50. All patients were followed up for 12 additional weeks.
• 1. Male or female patients ≥18 years old • 2. Written informed consent • 3. Diagnosis of HS for at least 1 year • 4. HS lesions in at least 2 distinct anatomic areas, one of which is Hurley Stage II or III • 5. Total AN (abscesses and nodules) count ≥3 • 6. Patients with either primary or secondary failure of biological treatment or are not eligible for treatment with other biologicals • NOTE: a primary failure is defined as an at least 12 week treatment with a biological compound without effect and a secondary failure as achieving an initial response after at least 12 week treatment with a biological compound followed by a relapse. • 7. […]

[3] = test system: HS plasma-induced CD11b upregulation on blood neutrophils; test: CD11b upregulation on blood neutrophils induced by HS plasma (human whole blood model); type: cell-based; settings: HS plasma samples Pat. 088 and Pat. 092, FIG. 6
Text: To determine the role of C5a in the HS plasma sample on the neutrophil activation, the HS plasma samples with high levels of C5a were chosen and assessed by employing the human whole blood model. […] Recombinant human C5a was used as the positive control, while the plasma from healthy volunteers was chosen as the negative control. […] From these novel results the inventors concluded that blockade of C5a in HS patients is sufficient to achieve a strong suppression on neutrophil activation.

[4] = test system: human; settings: in vivo
[5] = test system: cynomolgus monkey; test: Nonclinical tests and studies including GLP toxicology studies in cynomolgus monkey; settings: in vitro/ex vivo tests and in vivo studies incl. GLP toxicology in cynomolgus monkey
[6] = test system: recombinant human C5a (rhC5a)-induced CD11b upregulation on blood neutrophils; test: CD11b assay in human whole blood stimulated with rhC5a; type: cell-based
Experimental: Human whole blood was stimulated with rhC5a or ZAP. To test the blocking activity of IFX-1 and irrelative control IgG4 on rhC5a, the antibodies were diluted to final Ab/Ag molar ratios of 1:1 and 0.5:1. To test the blocking activity of IFX-1 on eC5a, IFX-1 was diluted to reach final Ab/Ag molar ratios of approximately 4:1/3:1/2:1/1:1/0.5:1. Blood only with buffer served as a non-stimulation control to assess the baseline CD11b expression. Blood with antibody alone was used to determine the effects on CD11b expression of the antibody under non-stimulated condition. The complete mixture (Ab/Ag/blood) was incubated at 37° C. for 20 min to evaluate C5a-induced up-regulation of CD11b. After addition of anti-mouse CD11b:FITC samples were incubated for 30 min on ice to minimize background staining. Granulocytes were gated and mean fluorescence intensity (MFI) of FITC labeled (CD11b expressing) granulocytes was examined by flow cytometer.
Human blood was stimulated with rhC5a or zymosan A, and the complete mixture (Ab/Ag/blood) was incubated at 37° C. for 20 min to stimulate the C5a-induced up-regulation of CD11b. […] After lysis, cells were analyzed using flow cytometer. On the FSC/SSC dot-plot, granulocytes were gated and mean fluorescence intensity (MFI) of FITC labeled (CD11b expressing) granulocytes was examined for the whole sample set. […]

[7] = molecular target: T1, human C5a (Homo sapiens, UniProt P01031); test: In vitro blocking of C5a-induced biological effects; type: cell-based; settings: experimental in vitro settings
T1 sequence (P01031 678-751 limits assumed): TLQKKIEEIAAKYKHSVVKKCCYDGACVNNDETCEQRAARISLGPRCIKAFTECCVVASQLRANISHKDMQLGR

[8] = test system: zymosan-induced generation of IL-8 in human whole blood; test: Cytokine IL-8 ELISA after zymosan A stimulation of human whole blood; type: cell-based; settings: various concentrations of zymosan A, FIG. 4
Experimental: Human IL-8 ELISA was performed as recommended in the instruction manual under section “Assay procedure” (eBioscience Inc., San Diego, CA). Briefly, coating was performed overnight at 4° C. using 100 μl 1× capture antibody. Plates were blocked using 200 μl 1× assay diluents at RT for 1 h. Standard stock solutions were diluted with 1× assay diluents to the desired concentration, followed by 6 serial 1:2 dilutions. Sample supernatants were diluted as required in 1× assay diluents. According to the “Assay procedure”, 100 μl of standard dilutions and sample dilutions were added to the coated plate and incubated at RT for 1 h, followed by the incubation with 100 μl 1× detection antibody (RT, 1 h) and 100 μl 1× avidin-HRP (RT, 30 min). Color development was performed with 100 μl TMB substrate solution at RT for 10 min in the dark and was terminated with 100 μl stop solution. Absorbance was read out within 30 min using the plate reader at 450 nm. Zero standard value (blank) was subtracted from all standards and samples. Cytokine concentration of samples was calculated using a log(x)/log(y) standard curve of included standard samples.
In the same experimental set-up, IL-8 levels were measured and used to assess the inflammatory response. IL-8 concentrations after various doses of zymosan A stimulation ranged from 458 pg/ml to 3218 pg/ml in the absence of IFX-1. […]

[9] = HS patient plasma Pat. 088, test material 100 μM
[10] = HS patient plasma Pat. 088, test material 500 μM
[11] = HS patient plasma Pat. 092, test material 100 μM
[12] = HS patient plasma Pat. 092, test material 500 μM
[13] = HS patient plasma Pat. 088, test material 50 nM
[14] = HS patient plasma Pat. 088, test material 20 μM
[15] = HS patient plasma Pat. 092, test material 50 nM
[16] = HS patient plasma Pat. 092, test material 20 μM
[17] = HS patient plasma Pat. 088, test material 20 nM
[18] = HS patient plasma Pat. 092, test material 20 nM

## Cc1ccc(NC(=O)[C@H]2CCCN(C(=O)c3c(C)cccc3F)[C@H]2c2ccc(NC3CCCC3)cc2)cc1C(F)(F)F [Avacopan, (2R,3S)-2-[4-(cyclopentylamino)phenyl]-1-(2-fluoro-6-methylbenzoyl)-N-[4-methyl-3-(trifluoromethyl)phenyl]piperidine-3-carboxamide]
[1]; 500 μM, FIG. 11
  CD11b upregulation induced by HS patient plasma: completely blocked
[1]; [9]
  Blocking activity (%): 77.35%
  CD11b (mean MFI): 5289
[1]; [10]
  Blocking activity (%): 104.57%
  CD11b (mean MFI): 3027
[1]; [11]
  Blocking activity (%): 79.60%
  CD11b (mean MFI): 5000
[1]; [12]
  Blocking activity (%): 104.17%
  CD11b (mean MFI): 3081.5

## Ac-Phe-cyclo(Orn-Pro-D-Cha-Trp-Arg) [PMX-53]
[1]; 20 μM, FIG. 9B
  CD11b upregulation induced by HS patient plasma samples as well as by rhC5a: completely abrogated
[1]; [13]
  Blocking activity (%): 55.46%
  CD11b (mean MFI): 4728.5
[1]; [14]
  Blocking activity (%): 104.48%
  CD11b (mean MFI): 2027.5
[1]; [15]
  Blocking activity (%): 56.69%
  CD11b (mean MFI): 4657.5
[1]; [16]
  Blocking activity (%): 108.59%
  CD11b (mean MFI): 1912.5
[1]; huPP + rhC5a (20 nM), test material 50 nM
  CD11b (mean MFI): 4235.5
[1]; huPP + rhC5a (20 nM), test material 20 μM
  CD11b (mean MFI): 1851
[1]; huPP, non-stimulated, test material 50 nM
  CD11b (mean MFI): 2053.5
[1]; huPP, non-stimulated, test material 20 μM
  CD11b (mean MFI): 2218.5
[1]; rhC5a-spiked huPP (20 nM rhC5a), test material 50 nM
  Blocking activity (%): 50.30%
[1]; rhC5a-spiked huPP (20 nM rhC5a), test material 20 μM
  Blocking activity (%): 107.88%

B1: IFX-1: chimeric monoclonal IgG4 antibody which specifically binds to the soluble human complement split product C5a (antibody, V domains shown)
VH: QVQLQQSGPQLVRPGTSVKISCKASGYSFTTFWMDWVKQRPGQGLEWIGRIDPSDSESRLDQRFKDRATLTVDKSSSTVYMQLSSPTSEDSAVYYCARGNDGYYGFAYWGQGTLVTVSS
VL: DIVLTQSPASLAVSLGQRATISCKASQSVDYDGDSYMKWYQQKPGQPPKLLIYAASNLQSGIPARFSGSGSGTDFTLNIHPVEEEDAATYYCQQSNEDPYTFGGGTKLEIK
[2]; out of 11 patients treated up to Day 56, 800 mg i.v.
  HiSCR responders: 8 patients
[2]; treatment period of 8 weeks, Day 56, 95% confidence interval 43% to 91%
  HiSCR response rate: 72.7%
[3]
  suppression of CD11b upregulation induced by HS plasma: 100%
[4]
  safety laboratory parameters, vital signs and ECG parameters: no clinically relevant time or dose-related changes
[5]
  toxicological or safety concerns in nonclinical tests and studies: None of the conducted nonclinical tests and studies revealed any toxicological or safety concerns
[1]; 20 nM, FIG. 10
  CD11b upregulation by rhC5a and HS patient plasma samples (Pat. 088 and Pat. 092): completely abolish
[1]; [17]
  Blocking activity (%): 101.74%
  CD11b (mean MFI): 2209
[1]; [18]
  Blocking activity (%): 103.70%
  CD11b (mean MFI): 2147
[1]; huPP + rhC5a (20 nM), test material 20 nM
  CD11b (mean MFI): 2067
[1]; huPP, non-stimulated, test material 20 nM
  CD11b (mean MFI): 2352
[1]; rhC5a-spiked huPP (20 nM rhC5a), test material 20 nM
  Blocking activity (%): 104.29%
[6]; human whole blood, Ab/Ag molar ratios 1:1 and 0.5:1, FIG. 1
  blocking of rhC5a-stimulated CD11b up-regulation on human neutrophils: completely blocked
[6]; positive control of the zymosan A whole blood experiment, FIG. 3
  blocking of CD11b up-regulation stimulated by rhC5a: 100%
[7]
  efficiency of neutralizing the effects of 2 molecules C5a by one antibody: ~100%
[8]
  reduction rate of IL-8 generation: up to 54%
